Data from patent US7977120B2, “Fluorescent sensors for cellular amines” (The Curators of the University of Missouri, priority 2005, dated 2011).

What was measured:
[1] = tested on: norepinephrine-enriched chromaffin cells; assay: Staining norepinephrine-enriched chromaffin cells with Sensor IIb; type: cell-based; conditions: 0.25 μM, 15 minutes, 37 C, confocal microscopy; compared with epinephrine-enriched cells
Text: (§1) The adrenal medulla contains two types of chromaffin cells; those that primarily contain norepinephrine within vesicles and those that primarily contain epinephrine. The two types of cells can be separated upon high-speed centrifugation in a Percoll density gradient. Following centrifugation, the less-dense norepinephrine enriched cells can be collected from the top of the gradient, whereas the denser epinephrine-enriched cells settle to the bottom.
(§2) Following centrifugation of adrenal medullary cells in a Percoll density gradient, the less-dense norepinephrine enriched cells were collected from the top of the gradient, whereas the denser epinephrine-enriched cells were collected from the bottom of the gradient. Both collections of cells were incubated for 15 minutes at 37 C in 0.25 μM IIb dissolved in cell culture media. The cells were then washed in dye-free media and observed using a confocal microscope at room temperature.
(§3) Because it is possible to separate chromaffin cells into populations which contain epinephrine and norepinephrine, these cells were used to test sensor 76.

[2] = tested on: epinephrine-enriched chromaffin cells; assay: Staining epinephrine-enriched chromaffin cells with Sensor IIb; type: cell-based; conditions: identical conditions as norepinephrine cells
Text: as §1, §2, §3

CN(CCCSc1c(C=O)c(=O)n(Cc2ccccc2)c2cc(N(C)C)ccc12)Cc1ccccc1B(O)O [Sensor IIb]
staining of norepinephrine-enriched cells [1]: stained brightly | staining of epinephrine-containing cells [2]: did not stain well
